The values that follow come from patent publication US5885786A, “Methods for screening of substances for inhibition of multidrug resistance” (priority 1996, dated 1999).

“Also recorded” adds a separate entry of the source. Where two headings read alike, the source gives them in different places.

In assay [1] the test system is glycosylation of ceramide in MCF-7-AdrR cells (UDP-glucose:ceramide glucosyltransferase). Put plainly: Glycosylation of C6-ceramide and natural glycosphingolipid synthesis, [3H]galactose labeling. The format is cell-based. Particulars: for inhibition at 5 µM: 5.0 μM tamoxifen, FIG. 14B. The protocol:
(§1) FIG. 14A and FIG. 14B. Effect of Tamoxifen on Ceramide Synthesis and Glycosylation in MCF-7-AdrR Cells. FIG. 14: A Influence of tamoxifen on ceramide synthesis. The experiment was conducted as described in the legend to FIG. 13. Aliquots of the total lipid extract were based-hydrolyzed as described in Example I, separated by TLC using solvent system IV, and the resolved [^3 H]ceramide was quantitated by liquid scintillation spectrometry. Results are the mean±SEM of duplicate determinations from two separate experiments. FIG. 14B: Effect of tamoxifen on glycosylation of C6 -ceramide. Cells, in 100×20 mm culture dishes, were preincubated without or with 5.0 μM tamoxifen for 30 min, followed by incubation without or with 5.0 μM C6 -ceramide:BSA (prepared at a 1:1 molar ratio) for an additional 30 min. Cells were labeled thereafter with 1.0 μCi/ml [^3 H]galactose for 24 h. [3H]Galactose uptake was determined and found to be similar in all experimental points (1.0×10^6 cpm/dish). The total extracted lipid was applied to TLC separation and [^3 H]glycosphingolipids were analyzed as described in the legend to FIG. 10. The autoradiography of a representative chromatogram is shown.
In order to explore this notion, a short-chain ceramide analog with a 6-carbon N-acyl group (C6 -ceramide), was utilized as a substrate.

Assay [2] relates to glycosphingolipid synthesis in MCF-7-AdrR cells. Put plainly: Synthesis of glycosphingolipids in MCF-7-AdrR cells labeled with [3H]galactose. The format is cell-based. The note with it: for inhibition at 5 µM: 5.0 μM tamoxifen, [3H]galactose 24 h, FIG. 10. The procedure: FIG. 10. […] Glc-cer, glycosylceramide; Lac-cer, lactosylceramide; Con, control; Tam, tamoxifen.
(§2) MCF-7 cells, grown in medium containing 10% FBS, were switched to media containing 5% FBS. Cell lipids were radiolabeled by adding [^3 H]serine (2.0 μCi/ml), [^3 H]palmitic acid (1.0 μCi/ml), or [^3 H]galactose (1.0 μCi/ml) to the culture medium for the indicated times. Other radiolabels can be substituted. Cells were then rinsed twice with PBS, pH 7.4, and 2 ml of ice-cold methanol containing 2% acetic acid was added. The cells were scraped free, transferred to glass test tubes (13×100 mm), and lipids were extracted by the addition of chloroform (2 ml) followed by water (2 ml). The resulting organic lower phase was withdrawn and evaporated under a stream of nitrogen. Lipids were resuspended in 100 μL of chloroform/methanol (1:1, v/v), and aliquots were applied to TLC plates.
When using [^3 H]galactose, radiolabeled cells were transferred to glass tubes with PBS (1 ml), glucocerebroside (2.5 μg) was added to aid recovery, and lipids were extracted consecutively three times with 2 ml of chloroform/methanol (1:1, v/v).

Assay [3] concerns glycosylceramide formation in MCF-7-AdrR cells. Put plainly: Inhibition of [3H]glycosylceramide formation in MCF-7-AdrR cells (TLC, liquid scintillation). The class given is cell-based. Particulars: for inhibition of glycosylceramide synthesis (in words): MCF-7-AdrR cells. The protocol:
FIG. 9. […] Values represent the mean of determinations from three separate experiments, and are calculated as the percent glycosylceramide in the total lipid tritium extract.
FIG. 11A and FIG. 11B. […] FIG. 11: A Autoradiography. […] For autoradiography equal aliquots by volume of total lipid extract were applied to TLC plates. […] [^3 H]Glycosylceramide, visualized in panel A, was quantitated as described in the legend to FIG. 9. Each value represents mean±SEM of determinations from three separate experiments.
FIG. 12. […] [^3 H]Glycosylceramide was quantitated as described in the legend to FIG. 9. Results represents the mean±SEM of determinations from three separate experiments.
as §2
(§3) Lipid analysis was carried out by TLC using solvent system I: chloroform/methanol/ammonium hydroxide (40:10:1, v/v) for glycosylceramide separation, solvent system II: chloroform/methanol/water (60:40:8, v/v) for sphingoglycolipid separation, or solvent system III: chloroform/methanol/acetic acid/water (50:30:7:3, v/v) for sphingomyelin separation. For determination of ceramides, an aliquot of the chloroform-soluble lipids was base-hydrolyzed in 0.1N KOH in methanol for 1 h at 37° C., lipids were re-extracted, and separated by TLC using solvent system IV: hexane/diethyl ether/formic acid (60:40:1, v/v).
(§4) Radiochromatograms were sprayed with EN^3 HANCE, and exposed for 3-7 days for autofluorgraphy. TLC areas, aligned with bands on the autoradiographs or with iodine-stained commercial lipid standards, were scraped from the plate. Water (0.5 ml) was added to the plate scrapings followed by 4.5 ml of EcoLume counting fluid, and the samples were quantitated by liquid scintillation spectrometry.

Another assay has as its system MCF-7-AdrR cells. Nature of the assay: Temporal pattern of tamoxifen influence on total lipid, glycosylceramide, sphingomyelin and ceramide metabolism. The class given is cell-based. The protocol: FIG. 13A, FIG. 13B and FIG. 13C. Temporal Pattern for the Influence of Tamoxifen on Total Lipid, Glycosylceramide, and Sphingomyelin Metabolism in MCF-7-AdrR Cells. Cells, preincubated in the absence or presence of tamoxifen (20 μM) for 30 min, were labeled by addition of 1.0 μCi/ml [^3 H]palmitic acid for the times shown using RPMI-1640 medium containing 5% FBS. At each time point, cultures were washed with PBS and lipids were extracted as described under Example I. Aliquots of the labeling medium were counted directly by liquid scintillation spectrometry to determine [^3 H]palmitic acid uptake and incorporation into total cell lipids (FIG. 13A). Glycosylceramide (FIG. 13B) and sphingomyelin (FIG. 13C) levels were evaluated by TLC using solvent system I and II, respectively, followed by quantitation of radiolabel in the relevant regions as detailed in Example I. Results are the mean±SEM of duplicate determinations from two separate experiments.
as §1, §3, §4

In assay [4] the test system is human melanoma cell lines (M101, M10 and M24). Nature of the assay: Formation of glycosylceramide in human metastatic melanoma cell lines M101, M10 and M24. The format is cell-based. The note with it: 5.0 μM tamoxifen, 24 h, FIG. 17. The text has this:
FIG. 17. […] Identical aliquots of total lipid extract were applied to TLC, and the plate was exposed for autoradiography.

Another assay concerns acid sphingomyelinase. Particulars: literature; cited from earlier work.
Assay [5] concerns glycosylceramide synthesis in MCF-7-AdrR cells. Put plainly: Glycosylceramide levels in MDR cells following drug treatment, [3H]serine 48 h. The class given is cell-based. Particulars: FIG. 15B.
Another assay has as its system P-glycoprotein. Particulars: literature; cited from earlier work.

Take `CC/C(=C(\c1ccccc1)c1ccc(OCCN(C)C)cc1)c1ccccc1` [tamoxifen]: the inhibition at 5 µM in assay [1] (5.0 μM C6-ceramide, read-out: inhibition of conversion of C6-ceramide to C6-glycosylceramide) is 54%; in assay [1] (in presence of C6-ceramide, read-out: inhibition of formation of natural glycosylceramide) it was 43%; in assay [2] (read-out: reduction of ganglioside level), 33%; in assay [2] (read-out: reduction of glycosylceramide level) it was 69%; in assay [2] (read-out: reduction of lactosylceramide level), 74%; in assay [3] (5.0 μM drug, 24 h, MCF-7-AdrR, FIG. 11B, read-out: inhibition of glycosylceramide formation (cpm tritium)), 65%. In addition, the “inhibition of glycosylation of C6-ceramide (in words)” value in assay [1] (tamoxifen) is “drastically inhibited”. The “synthesis of higher gangliosides (in words)” value in assay [2] (tamoxifen, MCF-7-AdrR) is listed as “suppress synthesis of higher gangliosides”. Moreover, the IC50 – broadly, the point on the concentration scale where inhibition reaches its midpoint – in assay [3] (24 h incubation with [3H]palmitic acid, FIG. 12, read-out: half-maximal inhibition (IC50) of cellular [3H]glycosylceramide formation) amounted to 1000 nM. In addition, the “maximal inhibitory effect on glycosylceramide formation (in words)” value in assay [3] (FIG. 12) was “highest maximal effect”. In addition, the “inhibition of glycosylceramide synthesis (in words)” value in assay [3] is given as “strongly inhibited”; in assay [3] (listed as Tamoxifen) it was “drastically inhibit”; in assay [5] (5.0 μM, alone or with adriamycin 2.5 μM), “greatly retarded”. Besides, the “inhibition of glycosylceramide synthesis within 4 h (in words)” value in the assay with MCF-7-AdrR cells (tamoxifen 20 μM, 4 h time frame, FIG. 13B) is on record as “almost completely inhibited”. Further, in the assay on MCF-7-AdrR cells (tamoxifen 20 μM, FIG. 13A), the “uptake and incorporation of [3H]palmitic acid (in words)” value is “very similar”. Moreover, in the assay with MCF-7-AdrR cells (tamoxifen 20 μM, FIG. 13B), the “onset of glycosylceramide formation inhibition” value worked out at 15 min. Also, the “time of half-maximal influence on glycosylceramide formation” value in the assay with MCF-7-AdrR cells (tamoxifen 20 μM, FIG. 13B) was determined as 45 min. Moreover, the “sphingomyelin synthesis (in words)” value with MCF-7-AdrR cells (tamoxifen 20 μM, FIG. 13C) is listed as “not influenced; also recorded: not altered”. For the same compound, the “level of ceramide / ceramide synthesis (in words)” value in the assay with MCF-7-AdrR cells (tamoxifen, FIG. 14A) was “remained unchanged; also recorded: very similar”. In assay [4], the “inhibition of glucosylceramide formation (in words)” value is recorded as “inhibition of glucosylceramide formation”. Besides, the “inhibition of acid sphingomyelinase (in words)” value in the assay on acid sphingomyelinase is reported as “inhibition of acid sphingomyelinase activity”. Further, the “inhibition of glycosylceramide production, tamoxifen added to adriamycin” value in assay [5] (tamoxifen 5.0 μM + adriamycin 2.5 μM) is given as 72%. Further, the “binding to P-glycoprotein (in words)” value in the assay on P-glycoprotein is listed as “direct binding to P-glycoprotein”.
